Holding throughout (format): functional
In assay [1] the test system is Staphylococcus aureus. Nature of the assay: Antimicrobial activity against vancomycin-susceptible Staphylococcus aureus isolate 11.
For assay [2], the system named is Staphylococcus aureus. Nature of the assay: Antimicrobial activity against methicillin-resistant Staphylococcus aureus isolate 8.
The test system of assay [3] is Staphylococcus aureus. Nature of the assay: Antimicrobial activity against vancomycin-resistant Staphylococcus aureus isolate 12.
Assay [4] deals with Staphylococcus aureus. Nature of the assay: Antimicrobial activity against methicillin-resistant Staphylococcus aureus isolate 7.
Assay [5] relates to Staphylococcus aureus. Nature of the assay: Antimicrobial activity against vancomycin-intermediate Staphylococcus aureus isolate 9.
Assay [6] relates to Staphylococcus aureus. Nature of the assay: Antimicrobial activity against methicillin-susceptible Staphylococcus aureus isolate 4.
The test system of assay [7] is Staphylococcus aureus. Kind of assay: Antimicrobial activity against vancomycin-resistant Staphylococcus aureus isolate 15.
Assay [8] deals with Staphylococcus aureus. Kind of assay: Antimicrobial activity against vancomycin-resistant Staphylococcus aureus isolate 13.
The test system of assay [9] is Staphylococcus aureus. Kind of assay: Antimicrobial activity against methicillin-susceptible Staphylococcus aureus isolate 3.
In assay [10] the test system is Staphylococcus aureus. Nature of the assay: Antimicrobial activity against methicillin-susceptible Staphylococcus aureus isolate 1.
In assay [11] the test system is Staphylococcus aureus. Kind of assay: Antimicrobial activity against methicillin-resistant Staphylococcus aureus isolate 6.
Assay [12] deals with Staphylococcus aureus. Kind of assay: Antimicrobial activity against vancomycin-intermediate Staphylococcus aureus isolate 10.
The test system of assay [13] is Staphylococcus aureus. Kind of assay: Antimicrobial activity against methicillin-susceptible Staphylococcus aureus isolate 2.
For assay [14], the system named is Staphylococcus aureus. Nature of the assay: Antimicrobial activity against methicillin-resistant Staphylococcus aureus isolate 5.
Assay [15] has as its system Staphylococcus aureus. Nature of the assay: Antimicrobial activity against vancomycin-resistant Staphylococcus aureus isolate 14.

For four compounds, MIC results are on record in ChEMBL document CHEMBL1153466, “Isoplatensimycin: Synthesis and biological evaluation” (2009).

The structures appear in SMILES notation. Values after ≈ are worked out from the molar mass of the structure shown.

The MIC is the lowest concentration that inhibits growth of the organism. The low end stands for a more susceptible organism, the high end for a less susceptible organism. As to `CC12CC3CC4(C=CC(=O)C(C)(CCC(=O)Nc5c(O)ccc(C(=O)O)c5O)C4C3O1)C2` (racemic) [ISOPLATENSIMYCIN], the MIC in the assay on Staphylococcus aureus [1] was 16 µg/mL (≈ 36.2 µM); with Staphylococcus aureus [2], over 128 µg/mL; against Staphylococcus aureus [3], 64 µg/mL (≈ 145 µM); with Staphylococcus aureus [4], over 128 µg/mL; in the assay on Staphylococcus aureus [5], over 128 µg/mL; in the assay with Staphylococcus aureus [6], 128 µg/mL (≈ 290 µM). Besides, the MIC against Staphylococcus aureus [7] is 4 µg/mL (≈ 9.06 µM); against Staphylococcus aureus [8], 32 µg/mL (≈ 72.5 µM); in the assay with Staphylococcus aureus [9], over 128 µg/mL; against Staphylococcus aureus [10], 128 µg/mL (≈ 290 µM); with Staphylococcus aureus [11] it was over 128 µg/mL; against Staphylococcus aureus [12] it was over 128 µg/mL. Besides, the MIC is over 128 µg/mL in the assay with Staphylococcus aureus [13], over 128 µg/mL against Staphylococcus aureus [14] and 2 µg/mL (≈ 4.53 µM) in the assay with Staphylococcus aureus [15].
`CC12C[C@@]34C=CC(=O)[C@@](C)(CCC(=O)Nc5c(O)ccc(C(=O)O)c5O)C3[C@H](CC1C4)O2` (mixture of isomers) [PLATENSIMYCIN]: the MIC was found to be 2 µg/mL in the assay on Staphylococcus aureus [1]; 4 µg/mL in the assay on Staphylococcus aureus [2]; 1 µg/mL against Staphylococcus aureus [3]; 16 µg/mL against Staphylococcus aureus [4]; 4 µg/mL against Staphylococcus aureus [5]; 2 µg/mL against Staphylococcus aureus [6]. Moreover, the MIC against Staphylococcus aureus [7] was found to be 0.5 µg/mL; with Staphylococcus aureus [8], 1 µg/mL; against Staphylococcus aureus [9], 128 µg/mL; in the assay with Staphylococcus aureus [10] it was 4 µg/mL; against Staphylococcus aureus [11], 4 µg/mL; in the assay on Staphylococcus aureus [12], 4 µg/mL. For the same compound, the MIC in the assay on Staphylococcus aureus [13] is 64 µg/mL; against Staphylococcus aureus [14] it was 4 µg/mL; with Staphylococcus aureus [15], 0.5 µg/mL.
Take `CN[C@H](CC(C)C)C(=O)N[C@H]1C(=O)N[C@@H](CC(N)=O)C(=O)N[C@H]2C(=O)N[C@H]3C(=O)N[C@H](C(=O)N[C@H](C(=O)O)c4cc(O)cc(O)c4-c4cc3ccc4O)[C@H](O)c3ccc(c(Cl)c3)Oc3cc2cc(c3O[C@@H]2O[C@H](CO)[C@@H](O)[C@H](O)[C@H]2O[C@H]2C[C@](C)(N)[C@H](O)[C@H](C)O2)Oc2ccc(cc2Cl)[C@H]1O` [VANCOMYCIN]: the minimal inhibitory concentration (MIC) against Staphylococcus aureus [3] is 32 µg/mL (≈ 22.1 µM); against Staphylococcus aureus [7], over 128 µg/mL; in the assay with Staphylococcus aureus [8] it was 128 µg/mL (≈ 88.3 µM); against Staphylococcus aureus [15], over 128 µg/mL.
In the case of `Cc1onc(-c2ccccc2)c1C(=O)N[C@@H]1C(=O)N2[C@@H]1SC(C)(C)[C@@H]2C(=O)O` [OXACILLIN], the MIC against Staphylococcus aureus [2] is over 128 µg/mL; in the assay on Staphylococcus aureus [4] it was 16 µg/mL (≈ 39.9 µM); in the assay with Staphylococcus aureus [5] it was over 128 µg/mL; with Staphylococcus aureus [6], 0.5 µg/mL (≈ 1.25 µM); against Staphylococcus aureus [9], 0.125 µg/mL (≈ 0.311 µM); against Staphylococcus aureus [10], 0.125 µg/mL (≈ 0.311 µM). For the same compound, the MIC against Staphylococcus aureus [11] is over 128 µg/mL; against Staphylococcus aureus [12], over 128 µg/mL; in the assay with Staphylococcus aureus [13], 0.5 µg/mL (≈ 1.25 µM); in the assay with Staphylococcus aureus [14], over 128 µg/mL.
